According to patent US20260102451A1, “RUMINANT METHANE PRODUCTION INHIBITOR” (SDS BIOTECH K.K., priority 2022, published 2026):

Legend:
Assay type in all cases: cell-based, Holstein milking cows
rumen fluid culture [1] = experiment: Methane production measurement system using rumen culture (Example 1); conditions: for methane amount (mean ± SD): 39° C., 17 hours
Method: Cashew nut shell liquid (CNSL) cold-pressed and extracted from cashew nut shells was obtained. For culture inoculum, rumen fluids (filtrates through quadruple gauzes) collected orally from Holstein milking cows 90 days or longer after calving were used. 4 mL of the rumen fluid and 6 mL of artificial saliva (McDougal's artificial saliva) were added, and the mixture was used for culturing. […] Similarly, DL-malic acid and fumaric acid were dissolved in ethanol and added such that they had desired concentrations in the solution. To equalize the effect of ethanol, only ethanol was added to a no-addition (control) area. Thereafter, the resulting products were left for several hours to vaporize ethanol, to which 50 mg of corn starch, 75 mg of concentrate feed powder, and 75 mg of timothy hay powder were added as culture substrates. […] To these test tubes, a total of 10 ml of diluted rumen fluid and artificial saliva in the above mixture ratio was added, and the tubes were incubated anaerobically in an incubator (39° C., 17 hours) with butyl rubber caps and plastic screw caps provided while nitrogen gas was blown into the head space. Each culturing was performed in triplicate. The concentrations of methane and acetic acid in volatile fatty acids were both analyzed by FID gas chromatography.

rumen fluid culture [2] = experiment: Methane production measurement system using rumen culture (Example 2); conditions: for methane amount (mean ± SD): 39° C., 17 hours
Method: (§1) Cashew nut shell liquid (CNSL) cold-pressed and extracted from cashew nut shells was obtained. For culture inoculum, rumen fluids (filtrates through quadruple gauzes) collected orally from Holstein milking cows 90 days or longer after calving were used. 4 mL of the rumen fluid and 6 mL of artificial saliva (McDougal's artificial saliva) were added and the mixture was used for culturing. […] CNSL was dissolved in ethanol and added to a Hungate tube such that it had any concentration in the solution. […] To equalize the effect of ethanol, only ethanol was added to a no-addition (control) area. Thereafter, the resulting products were left for several hours to vaporize ethanol, to which 50 mg of corn starch, 75 mg of concentrate feed powder, and 75 mg of timothy hay powder were added as culture substrates. To these test tubes, a total of 10 ml of diluted rumen fluid and artificial saliva in the above mixture ratio was added, and the tubes were incubated anaerobically in an incubator (39° C., 17 hours) with butyl rubber caps and plastic screw caps provided while nitrogen gas was blown into the head space. Each culturing was performed in triplicate. The concentrations of methane and acetic acid in volatile fatty acids were both analyzed by FID gas chromatography.

rumen fluid culture [3] = experiment: Methane production measurement system using rumen culture (Example 3); conditions: for methane amount (mean ± SD): 39° C., 17 hours; for methane amount % reduction vs cont: ^ = increase
Method: as §1, with “Thereafter, the resulting products were left for several hours to vaporize ethanol, to which 50 mg of corn starch, 75 mg of concentrate feed powder, and 75 mg of timothy hay powder were added as culture substrates.” left out, “mL” for “ml”

[4] = 1000 mg/L alone, ▴ = reduction, ^ = increase

| Structure (SMILES) | acetate amount % vs cont (rumen fluid culture [1]; 500 mg/L alone) [%] | acetate amount (mean ± SD) (rumen fluid culture [1]; 500 mg/L alone) [g/L] | methane amount (mean ± SD) (rumen fluid culture [1]; 500 mg/L alone) [mL/tube] | acetate amount % vs cont (rumen fluid culture [2]; 500 mg/L alone) [%] | acetate amount (mean ± SD) (rumen fluid culture [2]; 500 mg/L alone) [g/L] | methane amount (mean ± SD) (rumen fluid culture [2]; 500 mg/L alone) [mL/tube] | acetate amount % vs cont (rumen fluid culture [2]; 1000 mg/L alone) [%] | acetate amount (mean ± SD) (rumen fluid culture [2]; 1000 mg/L alone) [g/L] | methane amount (mean ± SD) (rumen fluid culture [2]; 1000 mg/L alone) [mL/tube] | acetate amount % vs cont (rumen fluid culture [3]; 500 mg/L alone) [%] | acetate amount (mean ± SD) (rumen fluid culture [3]; 500 mg/L alone) [g/L] | methane amount (mean ± SD) (rumen fluid culture [3]; 500 mg/L alone) [mL/tube] | acetate amount % vs cont (rumen fluid culture [3]; 1000 mg/L alone) [%] | acetate amount (mean ± SD) (rumen fluid culture [3]; 1000 mg/L alone) [g/L] | methane amount (mean ± SD) (rumen fluid culture [3]; 1000 mg/L alone) [mL/tube] | acetate amount % vs cont (rumen fluid culture [3]; 2000 mg/L alone) [%] | acetate amount (mean ± SD) (rumen fluid culture [3]; 2000 mg/L alone) [g/L] | methane amount (mean ± SD) (rumen fluid culture [3]; 2000 mg/L alone) [mL/tube] | methane amount % reduction vs cont (rumen fluid culture [3]; 2000 mg/L alone) | also measured |
| --- | --- | --- | --- | --- | --- | --- | --- | --- | --- | --- | --- | --- | --- | --- | --- | --- | --- | --- | --- | --- |
| O=C(O)/C=C/C(=O)O [fumaric acid] | 114 | 3.86 ± 0.12 | 5.94 ± 0.01 |  |  |  |  |  |  |  |  |  |  |  |  |  |  |  |  |  |
| CC(=O)C(=O)O [pyruvic acid] |  |  |  | 109 | 4.04 ± 0.31 | 5.58 ± 1.26 | 118 | 4.36 ± 0.02 | 5.39 ± 0.04 |  |  |  |  |  |  |  |  |  |  |  |
| O=C(O)CCC(=O)O [succinic acid] |  |  |  | 115 | 4.26 ± 0.42 | 5.28 ± 1.76 | 106 | 3.91 ± 0.58 | 6.24 ± 0.83 |  |  |  |  |  |  |  |  |  |  |  |
| O=C(O)CC(O)C(=O)O (racemic) [DL-malic acid] | 123 | 4.18 ± 0.11 | 6.22 ± 0.93 |  |  |  |  |  |  | 114 | 4.18 ± 0.07 | 6.13 ± 0.92 | 102 | 3.76 ± 0.27 | 6.13 ± 0.00 | 105 | 3.85 ± 0.38 | 5.95 ± 0.70 | ▴3% | acetate amount % vs cont (rumen fluid culture [1]; 1000 mg/L alone): 111%; acetate amount (mean ± SD) (rumen fluid culture [1]; 1000 mg/L alone): 3.76 ± 0.11 g/L; methane amount (mean ± SD) (rumen fluid culture [1]; 1000 mg/L alone): 5.47 ± 0.01 mL/tube; methane amount % reduction vs cont (rumen fluid culture [1]; [4]): ▴0%; improvement in the methane reduction rate (rumen fluid culture [1]; CNSL and garlic powder in combination, 500 to 1,000 mg/L DL-malic acid alone, 100 to 200 mg/L garlic powder): did not show significant improvement |
| O=C(O)CC(O)(CC(=O)O)C(=O)O [citric acid] |  |  |  | 115 | 4.25 ± 0.16 | 5.12 ± 0.67 | 119 | 4.42 ± 0.14 | 3.77 ± 1.64 | 99 | 3.64 ± 0.70 | 6.53 ± 0.43 | 102 | 3.76 ± 1.10 | 6.41 ± 1.49 | 128 | 4.71 ± 0.15 | 5.45 ± 2.09 | ▴11% | methane amount % reduction vs cont (rumen fluid culture [2]; [4]): ▴21% |
